Assay results reported in US20210268056A1, “TAXODIONE FOR ITS USE FOR PROTECTING MUSCLE AND MEAT FROM OXIDATION” (CENTRE NATIONAL DE LA RECHERCHE SCIENTIFIQUE, priority 2018, published 2021).
Entries after “also recorded” stand apart in the source; their conditions may differ.

What was measured:
[1] = DPPH free radical scavenging assay; format: biochemical
Description: Radical scavenging activity was evaluated using DPPH according to the method described by Morel et al. with some modifications (Morel, Landreau, Nguyen, Derbre, Grellier, Pape, et al., 2012). Tested extracts and standards were diluted in absolute ethanol at different concentrations. Ethanol was used as blank, and 10, 25, 50 and 75 μM Trolox were used as calibration solutions. Tested compounds or standard solutions (100 μL) were placed in 96-well plates in triplicate for each tested concentration. Absolute ethanol was added (75 μL). The reaction was initiated by adding 25 μL of freshly prepared DPPH solution (1 mM) to obtain a final volume of 200 μL/well. After 30 min in the dark at room temperature, absorbance was determined at 550 nm with a UVMAX Molecular Devices microtiter plate reader (MDS Inc., Toronto, Canada). Results were expressed as the effective concentration at which 50% of DPPH radicals were scavenged (EC50 in μg/mL). The results are the mean±standard deviation (SD) of three independent experiments (three wells per concentration for each experiment).

HIV-1 protease = target: T1, HIV-1 protease (Human immunodeficiency virus type 1 group M subtype B, UniProt P04585); settings: Ahmed 1999; cited from earlier work
T1 construct: HIV-1 protease

bacteria = settings: Machumi 2010; Bufalo 2016; cited from earlier work
acetylcholinesterase = acetylcholinesterase (Homo sapiens, UniProt P22303); settings: Kuzma 2016; cited from earlier work
CHOP gene = experiment: RT-qPCR of CHOP gene expression in myoblasts; format: cell-based, human
Description: Myoblasts were seeded in 35 mm collagen-coated dishes, cultured in proliferation medium, pre-incubated or not with TX for 24 h, and then incubated or not with a sub-lethal concentration of H2O2 (80 μM; to avoid interference with dead cells) for 24 h. Then, total RNA was isolated from muscle cells using the NucleoSpin RNA II Kit (Macherey-Nagel, Hoerdt, France). The RNA concentration of each sample was measured with an Eppendorf BioPhotometer. cDNA was prepared using the Verso cDNA Synthesis Kit (Thermo Scientific, Ilkirch, France).
The expression of the CHOP (target) and RPLPO (control) genes was analysed by quantitative polymerase chain reaction (qPCR) on a LightCycler apparatus (Roche Diagnostics, Meylan, France), as previously described (El Haddad, Notarnicola, Evano, El Khatib, Blaquiere, Bonnieu, et al., 2017), using the following primers: […]

Leishmania = settings: Naman 2016; Zhang 2012; Machumi 2010; Bufalo 2016; cited from earlier work
protein phosphatase 2C = settings: Kusumoto 2014; cited from earlier work
human myotubes [2] = experiment: ROS in myotubes (CellRox probe, TECAN); format: cell-based; settings: TX 0.5 μg/mL 24 h, then H2O2 (550 μM) 24 h, FIG. 4E
[3] = system: MOLT-4, HT-29, and MCF-7 cells; settings: Mirzaei 2017; cited from earlier work
γH2AX = experiment: Western blot of phosphorylated γH2AX in myoblasts; format: cell-based, human
Description: Myoblasts were seeded in 35 mm collagen-coated dishes, cultured in proliferation medium, pre-incubated or not with TX for 24 h and then incubated or not with 80 μM H2O2 for 24 h. Protein extracts were separated by SDS-PAGE gel electrophoresis and transferred to nitrocellulose membranes, blocked at room temperature with Odyssey blocking buffer (Eurobio, France) and probed with the rabbit polyclonal anti-Histone H1.4 (Sigma-Aldrich; 1/5000) and rabbit polyclonal anti-gamma H2AX (Cell signalling; 1/3000) antibodies followed by IRDye® 680RD and IRDye® 800RD secondary antibodies (Eurobio, France). Fluorescence was quantified with the Odyssey software. Data were normalized to […] expression.

microbes = settings: Zhang 2012; Kuzma 2012; cited from earlier work
[4] = system: Walker carcinosarcoma 256; settings: Kupchan 1968; cited from earlier work
protozoa = settings: Mothana 2014; Kuzma 2017; cited from earlier work
Plasmodium = settings: Zhang 2012; cited from earlier work
fungi = settings: Kusumoto 2010; Machumi 2010; Bufalo 2016; cited from earlier work
termites = settings: Kusumoto 2009; cited from earlier work
human myotubes [5] = experiment: H2O2 toxicity in myotubes by lactate dehydrogenase (LDH) activity; format: cell-based; settings: TX 0.5 μg/mL 24 h, then H2O2 (550 μM) 24 h, FIG. 4D
Description: (§1) Myoblasts: Myoblasts were seeded in 35 mm collagen-coated dishes, cultured in proliferation medium, pre-incubated or not with the tested compounds for 24 h and then incubated or not with a lethal concentration of hydrogen peroxide (H2O2), a strong pro-oxidant/pro-apoptotic compound, for 24 h. The optimal H2O2 concentration was the concentration required to kill between 30% and 50% of all cells and was established before each experiment. In general, myoblasts were incubated with 120 μM H2O2. Dead myoblasts were identified by staining with the Muse® Count and Viability Kit, and ROS was quantified with the Muse® Oxidative Stress Kit, followed by analysis with a Fluorescence Activated Cell Sorting (FACS) Muse apparatus (Millipore, France). Myotubes: Myoblasts were seeded in 35 mm collagen-coated dishes, cultured in proliferation medium until confluence, and then switched to differentiation medium for 4 days. At day 2, cells were incubated with TX for 24 h prior to incubation with H2O2 for 24 h. […] As myotubes are too big for FACS analysis, H2O2 effect was determined by quantifying lactate dehydrogenase (LDH) activity, which is increased in the culture medium during tissue damage, using the LDH Cytotoxic Kit (ThermoFisher, France). In parallel, myotube cultures were loaded with a ROS-fluorescent probe (CellRox) followed by fluorescence quantification using a TECAN spectrophotometer.

[6] = Kolak 2009; cited from earlier work
colon cancer cells = settings: isolated in mixture with [9]-shogaol from Rosmarinus officinalis leaves; Borras Linares 2015; cited from earlier work
human myoblasts [7] = experiment: ROS quantification in myoblasts (Muse Oxidative Stress Kit, FACS); format: cell-based
Description: as §1

human myoblasts [8] = experiment: H2O2-induced cell death in human myoblasts (Muse Count and Viability Kit); format: cell-based
Description: The quadriceps muscle biopsy was from one healthy adult (AFM-BTR “Banque de tissus pour la recherche”). Myoblasts were purified from the muscle biopsy and were cultured on collagen-coated dishes in DMEM/F12 medium with 10% foetal bovine serum (FBS), 0.1% Ultroser G and 1 ng/ml of human basic fibroblast growth factor (proliferation medium), as previously described (Kitzmann, Bonnieu, Duret, Vernus, Barro, Laoudj-Chenivesse, et al., 2006). For cell differentiation, confluent cells were cultured in DMEM with 4% FBS for 3-5 days (differentiation medium).
Myoblasts: Myoblasts were seeded in 35 mm collagen-coated dishes, cultured in proliferation medium, pre-incubated or not with the tested compounds for 24 h and then incubated or not with a lethal concentration of hydrogen peroxide (H2O2), a strong pro-oxidant/pro-apoptotic compound, for 24 h. […] Dead myoblasts were identified by staining with the Muse® Count and Viability Kit, and ROS was quantified with the Muse® Oxidative Stress Kit, followed by analysis with a Fluorescence Activated Cell Sorting (FACS) Muse apparatus (Millipore, France). […] As myotubes are too big for FACS analysis, H2O2 effect was determined by quantifying lactate dehydrogenase (LDH) activity, which is increased in the culture medium during tissue damage, using the LDH Cytotoxic Kit (ThermoFisher, France). […]

acetylcholinesterase, sequence (P22303 32-614): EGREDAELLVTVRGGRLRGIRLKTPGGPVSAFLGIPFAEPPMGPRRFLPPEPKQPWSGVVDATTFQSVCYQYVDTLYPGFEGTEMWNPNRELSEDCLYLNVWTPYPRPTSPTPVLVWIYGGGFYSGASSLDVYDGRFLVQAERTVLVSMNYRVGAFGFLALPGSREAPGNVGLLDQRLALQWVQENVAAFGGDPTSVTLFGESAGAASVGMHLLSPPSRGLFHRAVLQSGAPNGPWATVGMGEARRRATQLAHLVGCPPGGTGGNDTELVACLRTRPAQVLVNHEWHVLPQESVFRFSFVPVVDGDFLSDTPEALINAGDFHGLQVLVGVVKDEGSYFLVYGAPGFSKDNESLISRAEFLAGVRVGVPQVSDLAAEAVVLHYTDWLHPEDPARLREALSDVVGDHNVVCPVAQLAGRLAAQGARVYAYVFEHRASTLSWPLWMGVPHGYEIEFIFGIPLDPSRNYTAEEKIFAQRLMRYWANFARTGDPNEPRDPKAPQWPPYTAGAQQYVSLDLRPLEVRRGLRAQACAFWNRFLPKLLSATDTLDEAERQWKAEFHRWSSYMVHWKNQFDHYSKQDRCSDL

SMILES: O=C(/C=C/c1ccc(O)c(O)c1)O[C@H](Cc1ccc(O)c(O)c1)C(=O)O [rosmarinic acid]
- DPPH free radical scavenging activity [1]: strong antioxidant capacities

SMILES: CC(C)C1=CC2=CC(=O)[C@H]3C(C)(C)CCC[C@]3(C)C2=C(O)C1=O [taxodione, (4bS,8aS)-4b,5,6,7,8,8a-hexahydro-4-hydroxy-2-isopropyl-4b,8,8-trimethylphenanthrene-3,9-dione]
- HIV-1 protease inhibitory activity (HIV-1 protease): low HIV-1 protease
- antibacterial activity (bacteria): antibacterial
- acetylcholinesterase inhibition (acetylcholinesterase): inhibition
- level of CHOP mRNA after H2O2 (CHOP gene; TX 0.5 μg/mL 24 h, then 80 μM H2O2 24 h, FIG. 4C): reduced H2O2 effects
- level of CHOP mRNA, TX alone (CHOP gene; without H2O2): did not have any effect
- anti-leishmanial activity (Leishmania): anti-leishmanial,; also recorded: anti-leishmanial
- protein phosphatase 2C inhibitor (protein phosphatase 2C): 2C inhibitor,
- ROS level (CellRox) after H2O2 (human myotubes [2]): significantly reduced H2O2 effects
- anti-proliferative activity in MOLT-4, HT-29, and MCF-7 cells [3]: anti-proliferative
- level of γH2AX protein after H2O2 (γH2AX; TX 0.5 μg/mL 24 h, then 80 μM H2O2 24 h, FIG. 4B): reduced H2O2 effects
- level of γH2AX protein, TX alone (γH2AX; without H2O2): did not have any effect
- antimicrobial activity (microbes): antimicrobial
- inhibitory activity against Walker carcinosarcoma 256 in rats [4]: inhibitory activity
- antiprotozoal activity (protozoa): weak antiprotozoal
- anti-plasmodial activity (Plasmodium): anti-plasmodial
- antifungal activity (fungi): Antifungal effects
- Antitermitic activity (antifeedant effect) (termites): Antitermitic activity
- DPPH free radical scavenging activity [1]: low
- LDH activity after H2O2 (human myotubes [5]): significantly reduced H2O2 effects
- activity in O2 assay [6]: not active in O2 assay
- anti-proliferative activity (colon cancer cells): anti-proliferative
- level of ROS after H2O2 (human myoblasts [7]; TX 0.5 μg/mL 24 h, then H2O2 24 h, FIG. 4A): reduced H2O2 effects
- level of ROS, TX alone (human myoblasts [7]; without H2O2): did not have any effect
- antioxidant activity (H2O2-induced cell death) compared with CA and CO (human myoblasts [8]; all tested concentrations, FIG. 3B): significantly more efficient

SMILES: CC(C)c1cc2c(c(O)c1O)[C@@]13CCCC(C)(C)[C@@H]1C[C@@H]2OC3=O [CO, carnosol]
- DPPH free radical scavenging activity [1]: strong antioxidant capacities

SMILES: CC1(C)CC(O)CC(C)(C)N1[O] [Tempol, reference compound]
- protection against H2O2-induced cell death (human myoblasts [8]; pre-incubation 24 h prior to lethal H2O2 (120 μM), Tempol 50 μM, RW all tested concentrations, FIG. 1A): protected human myoblasts efficiently

SMILES: CC(C)c1cc2c(c(O)c1O)[C@@]1(C(=O)O)CCCC(C)(C)[C@@H]1CC2 [CA, carnosic acid]
- DPPH free radical scavenging activity [1]: strong antioxidant capacities
